Active and inactive are the calls of the source. The calls are words filed in the database; no cut-off is given here.
How the values were obtained:
Mus musculus [1] = assay: Mean survival time of mice (Mus musculus) infected with Plasmodium berghei after administration of compound at the dose of 40 mg/kg; format: functional
Mus musculus [2] = assay: Mean survival time of mice (Mus musculus) infected with Plasmodium berghei after administration of compound at the dose of 80 mg/kg; format: functional
Mus musculus [3] = assay: Mean survival time of mice (Mus musculus) infected with Plasmodium berghei after administration of compound at the dose of 160 mg/kg; format: functional
Mus musculus [4] = assay: Mean survival time of mice (Mus musculus) infected with Plasmodium berghei after administration of compound at the dose of 20 mg/kg; format: functional
Mus musculus [5] = assay: In vivo antimalarial activity against Plasmodium berghei in mice (Mus musculus); Inactive; format: functional, organism-based
Plasmodium falciparum [6] = assay: (§1) In vitro schizont maturation inhibition for chloroquine-sensitive Plasmodium falciparum FJB D9; format: functional, organism-based
Plasmodium falciparum [7] = assay: (§2) In vitro schizont maturation inhibition for chloroquine-sensitive Plasmodium falciparum FSH 14; format: functional, organism-based
Plasmodium falciparum [8] = assay: (§3) In vitro total parasite growth inhibition for chloroquine-sensitive Plasmodium falciparum FJB D9; format: functional, organism-based
Plasmodium falciparum [9] = assay: (§4) In vitro total parasite growth inhibition for chloroquine-sensitive Plasmodium falciparum FSH 14; format: functional, organism-based
Plasmodium falciparum [10] = assay: as §1; format: functional
Plasmodium falciparum [11] = assay: as §2; format: functional
Plasmodium falciparum [12] = assay: as §3; format: functional
Plasmodium falciparum [13] = assay: as §4; format: functional
Mus musculus [14] = assay: In vivo antimalarial activity against Plasmodium berghei in mice (Mus musculus); In active; format: functional, organism-based
Mus musculus [15] = assay: In vivo antimalarial activity against Plasmodium berghei in mice (Mus musculus); Active at 160 mg/kg; format: functional, organism-based; design: dose 160 mg/kg
Mus musculus [16] = assay: In vivo antimalarial activity against Plasmodium berghei in mice (Mus musculus); Active from 40 mg/kg; format: functional, organism-based; design: dose 40 mg/kg
Mus musculus [17] = assay: In vivo antimalarial activity against Plasmodium berghei in mice (Mus musculus); Active at 80 and 160 mg/kg; format: functional, organism-based; design: dose 160 mg/kg

Structure (SMILES)	Mean survival time (Mus musculus [1])	Mean survival time (Mus musculus [2])	Mean survival time (Mus musculus [3])	Mean survival time (Mus musculus [4])	Activity (Mus musculus [5])	IC50 (Plasmodium falciparum [6])	IC50 (Plasmodium falciparum [7])	IC50 (Plasmodium falciparum [8])	IC50 (Plasmodium falciparum [9])	IC90 (Plasmodium falciparum [10])	IC90 (Plasmodium falciparum [11])	IC90 (Plasmodium falciparum [12])	IC90 (Plasmodium falciparum [13])	Activity (Mus musculus [14])	Activity (Mus musculus [15])	Activity (Mus musculus [16])	Activity (Mus musculus [17])
CC(C)(C)OOCN1CCOCC1	7.6 days	8.8 days	11.4 days	6.8 days	inactive	0.058 uM well-1	0.064 uM well-1	0.15 uM well-1	0.16 uM well-1	2.6 uM well-1	2.9 uM well-1	3 uM well-1	2.15 uM well-1	–	–	–	–
CCN(CC)COOC(C)(C)C	8.4 days	9.4 days	12.2 days	7.2 days	inactive	> 25 uM well-1	> 25 uM well-1	> 25 uM well-1	> 25 uM well-1	>25 uM well-1	>25 uM well-1	>25 uM well-1	>25 uM well-1	–	–	–	–
COC1=CC=C2[C@H]3Cc4ccc(OC)c5c4[C@@]2(CCN3COOC(C)(C)C)[C@H]1O5	40 days	6.8 days	7.2 days	5.2 days	–	0.135 uM well-1	0.5 uM well-1	1.8 uM well-1	0.45 uM well-1	0.47 uM well-1	0.92 uM well-1	6.4 uM well-1	5 uM well-1	inactive	–	–	–
CC(C)(C)OOCN(C1CCCCC1)C1CCCCC1	8.6 days	9.8 days	13.4 days	7.6 days	–	1.5 uM well-1	2.1 uM well-1	5 uM well-1	5 uM well-1	21 uM well-1	>25 uM well-1	25 uM well-1	>25 uM well-1	–	Active	–	–
CC(C)(C)OOCN(Cc1ccccc1)Cc1cccs1	6.6 days	10.2 days	14 days	5.8 days	–	0.9 uM well-1	0.5 uM well-1	2.7 uM well-1	2.2 uM well-1	6 uM well-1	11.5 uM well-1	4.8 uM well-1	12 uM well-1	–	Active	–	–
CC(C)=CCCC(C)CCN(CCO)COOC(C)(C)C (stereo not drawn)	7.3 days	11.2 days	15 days	6.2 days	–	3.2 uM well-1	1.4 uM well-1	7.8 uM well-1	3.8 uM well-1	>25 uM well-1	>25 uM well-1	>25 uM well-1	>25 uM well-1	–	Active	–	–
C[C@@H]1CC[C@H]2[C@@H](C)C(=O)O[C@@H]3O[C@@]4(C)CC[C@@H]1[C@]32OO4 [ARTEMISININ]	–	–	–	10.8 days	–	0.01 uM well-1	0.01 uM well-1	0.015 uM well-1	0.01 uM well-1	0.028 uM well-1	0.028 uM well-1	0.03 uM well-1	0.029 uM well-1	–	–	Active	–
CC(C)(C)OOCN1CCCC1	7 days	9.8 days	11.8 days	5.4 days	–	> 25 uM well-1	> 25 uM well-1	> 25 uM well-1	> 25 uM well-1	>25 uM well-1	>25 uM well-1	>25 uM well-1	>25 uM well-1	–	Active	–	–
CC(C)(C)OOCN1CCCCC1	6.6 days	8.2 days	10.2 days	5.2 days	inactive	3.6 uM well-1	2.9 uM well-1	5.5 uM well-1	5 uM well-1	22.5 uM well-1	24 uM well-1	>25 uM well-1	>25 uM well-1	–	–	–	–
CC(C)(C)OOCN(CCO)CCO	11.6 days	12.8 days	14 days	10.2 days	–	22 uM well-1	10 uM well-1	> 25 uM well-1	> 25 uM well-1	>25 uM well-1	>25 uM well-1	>25 uM well-1	>25 uM well-1	–	–	–	Active
CC(C)=CCCC(C)CCN(COOC(C)(C)C)Cc1ccccc1 (stereo not drawn)	6.8 days	10.8 days	12.2 days	5.2 days	–	1.6 uM well-1	1.6 uM well-1	4.4 uM well-1	2.5 uM well-1	9 uM well-1	10 uM well-1	10 uM well-1	12 uM well-1	–	Active	–	–
CC(C)(C)OOCN(Cc1ccccc1)Cc1ccco1	7.2 days	10.8 days	12 days	6.4 days	inactive	1.45 uM well-1	1.35 uM well-1	2.1 uM well-1	2.25 uM well-1	2.8 uM well-1	4.5 uM well-1	5.5 uM well-1	5.4 uM well-1	–	–	–	–

From ChEMBL document CHEMBL1133927, “Antimalarial t-butylperoxyamines” (Bioorg Med Chem Lett, 2001)
